Results taken from patent publication US12508271B2, “Prodrugs of 2-PMPA for healthy tissue protection during PSMA-targeted cancer imaging or radiotherapy” (The Johns Hopkins University, priority 2017, dated 2025).
Values belong to the molecule of their own block, whether it stands above or below them.

Tests used:
PSMA [1] = molecular target: T1, PSMA (Mus musculus, UniProt O35409); settings: 2-PMPA 0.01 mg co-injection with 177Lu-PSMA I&T (100 MBq); cited from earlier work
PSMA [2] = molecular target: T2, PSMA (Homo sapiens, UniProt Q04609); settings: 2-PMPA 0.01 mg co-injection with 177Lu-PSMA I&T (100 MBq); cited from earlier work
[3] = cited from earlier work
[4] = Pharmacokinetics/tissue distribution of 2-PMPA in C4-2 prostate cancer tumor-bearing NSG mice; format: in vivo; settings: 2-PMPA administered directly, 3 mg/kg i.v.
Experimental: To generate a C4-2 in vivo model, 3×10^6 LNCaP-C4-2 cells were subcutaneously injected into the flanks of male NSG mice. When tumors grew to approximately 600-800 mm^3, tumors were excised, aseptically cut into 2-mm×2-mm pieces and frozen back viably (5% DMSO/95% FBS). Tumors were not passaged from mouse to mouse more than 4 times. For the current experiment, two vials of viably frozen explants were thawed at 37° C. Tumor explants were washed in RPMI without FCS and then surgically implanted in a subcutaneous pocket in male NSG mice. When tumors reached 600-800 mm^3, mice were euthanized, tumors excised aseptically, and cut into 2-mm×2-mm pieces prior to re-implantation into 40 mice. When tumors reached 500-700 mm^3, the pharmacokinetic experiment was performed. 2-PMPA (3 mg/kg, i.v.) or a molar equivalent of Tris-POC-2-PMPA (7.62 mg/kg, i.v.) were injected via tail vein after dissolution in vehicle (5% EtOH/10% Tween 80/85% 50 mM HEPES). Mice were then euthanized under isoflurane anesthesia 0.25, 0.5, 1, 3, or 6 hours later (n=3/group). Blood was collected by cardiac puncture into EDTA-lined tubes and stored on ice until plasma was isolated by centrifugation. Salivary glands, kidneys, and tumor were harvested and flash frozen on dry ice. All tissues were stored at −80° C. prior to bioanalysis.

PSMA [5] = molecular target: T2, PSMA; test: 177Lu-PSMA-617 radiation dosimetry in mCRPC patients with Tris-POC-2-PMPA pre-treatment versus historical controls; format: in vivo; set-up: from tissue; host or cells: kidneys, salivary and lacrimal glands, and tumour lesions/metastases of living human subjects (PET / gamma imaging); settings: for 177Lu-PSMA-617 absorbed dose, kidneys / 177Lu-PSMA-617 absorbed dose, parotid gland / 177Lu-PSMA-617 absorbed dose, submandibular gland / 177Lu-PSMA-617 mean dose to metastases: 15 minutes prior to infusion
Experimental: ^177Lu-PSMA-617 was offered as surrogate therapy in accordance with the updated Declaration of Helsinki, paragraph-37 “Unproven Interventions in Clinical Practice,” and in accordance with German regulations for “compassionate use,” which includes priority of all approved treatments (without contraindications) and confirmation of the indication by both a nuclear medicine physician and an external expert in urology or oncology. No systematic patient selection was performed, except all patients had to present with a PSMA-positive tumor phenotype based on PSMA imaging. All patients were informed about the experimental nature of this therapy and gave written informed consent. The institutional review board approved this retrospective study. Two patients were pre-treated with Tris-POC-2-PMPA prior to administration of ^177Lu-PSMA-617. […] Dosimetry data from historical controls presented herein are derived from patients treated under the same protocol at our center as previously reported (J Nucl Med. 2016 August; 57(8):1170-6.). All dosimetry methods were conducted as previously described in that report (J Nucl Med. 2016 August; 57(8):1170-6.).

PSMA [6] = test: Displacement study of 68Ga-PSMA-617 in LNCaP tumor xenograft bearing nude mice (PET); format: in vivo; settings: average of two animals, 0.5 or 0.05 mg/kgBW after baseline scan; baseline mSUV 1.02; saline control mSUV 0.84
Experimental: (§1) 5*10^6 LNCaP cells (BD Biosciences) were implanted behind the left shoulder of n=3 nude mice; tumors reached a diameter of approximately 1-cm diameter 8-12 weeks after inoculation. Baseline uptake of the radiopharmaceutical in kidneys and tumor was quantified per animal PET-scan (Siemens, Inveon) 1 h after injection of ^68Ga-PSMA-617 (10-40 MBq ^68Ga tagged to […] PSMA-617 precursor). Immediately after the baseline scan animals were injected with 0.5 mg/kgBW or 0.05 mg/kgBW Tris-POC-2-PMPA in […] saline or pure saline as control. Another 1 h later, i.e., 2 h after injection of the PET-tracer, ^68Ga-PSMA-617 uptake in kidneys and tumor were re-evaluated per second animal PET (displacement scan).

[7] = Comparative tissue distribution of 2-PMPA prodrugs versus equimolar 2-PMPA in nude mice (kidney 2-PMPA by LC/MS-MS); format: in vivo; settings: 5 mg/kg or molar equivalent, i.p., 30 minutes
Experimental: Nude mice were administered either 2-PMPA or the prodrugs LTP-144 or Tris-POC-2-PMPA (compound 10 of Table 1) (5 mg/kg or molar equivalent, i.p.) prior to brief isoflurane anesthesia, saline perfusion, and sacrificed 30 minutes later. Kidneys were removed and flash frozen in liquid nitrogen. Each tissue sample was assessed for 2-PMPA concentration using previously described LC/MS-MS based bioanalysis (Majer et al., 2016). In addition, a prodrug of the urea-based PSMA ligand ZJ-43 (with similar pro-moiety modifications to Tris-POC-2-PMPA) was tested using similar methods.

PSMA [8] = molecular target: T2, PSMA; test: Kidney and salivary gland uptake of 68Ga-PSMA-617 in healthy human subject with and without Tris-POC-2-PMPA pre-dosing (PET); format: in vivo; set-up: from tissue; host or cells: kidneys, salivary and lacrimal glands, and tumour lesions/metastases of living human subjects (PET / gamma imaging)
Experimental: From a couple of patients who had been imaged (Siemens, mCT) 0.1 h, 1 h, 2 h, 3 h and 4 h after injection of ^68Ga-PSMA-617 previously (Afshar-Oromieh et al., 2015), one subject without relevant tumor-load (<5 mL) was chosen to quantify the physiologic spontaneous tracer uptake in kidneys and salivary gland during the examination time. For the intervention experiment, one healthy volunteer was injected with […] (0.05 mg/kgBW) Tris-POC-2-PMPA solution (in 2.5 mL of 30% ethanol) 15 min before application of the PET-tracer. Again, PET-scans (Siemens, mCT) were performed 0.1 h, 1 h, 2 h, 3 h and 4 h after injection of ^68Ga-PSMA-617 and quantified per SUVmax for tracer uptake in kidneys and salivary glands over time.

renal PSMA = molecular target: T3, renal PSMA (Mus musculus, UniProt O35409); test: Displacement study of 68Ga-PSMA-617 in non-tumor-bearing NMRI mice (PET); format: in vivo; settings: 0.5 mg/kg i.v. 1 h after tracer, scan 2 h after tracer
T3 construct: from tissue; host or cells: kidney of living NMRI mice (PET)
Experimental: ^68Ga-PSMA-617 was synthesized as described previously (Afshar-Oromieh et al., 2015). The specific activity of the radiopharmaceutical used in the presented animal study (20 MBq of ^68Ga tagged to 0.2-0.8 μg of precursor peptide) corresponds to the one used in clinical application (Afshar-Oromieh et al., 2015). Three non-tumor-bearing NMRI mice were injected via the tail vein with 20 MBq of ^68Ga-PSMA-617. 1 h post injection, enough time for specific tracer binding to renal PSMA and clearance of unbound tracer from the kidney calices, mice were imaged in a dedicated small animal PET-scanner (Siemens, Inveon) to quantify kidney uptake (baseline-scan). Immediately after the baseline scan 16 μg Tris-POC-2-PMPA (0.5 mg/kg*32.1 g bodyweight (BW) of all mice) in 100 μL saline was injected via the tail vein. Another 1 h later, i.e., 2 h after injection of the PET-tracer, ^68Ga-PSMA-617 kidney uptake was re-evaluated per animal PET (displacement-scan).

PSMA [9] = molecular target: T2, PSMA; test: Tumor, kidney and salivary gland uptake of 68Ga-PSMA-617 in a prostate cancer patient with and without Tris-POC-2-PMPA pre-dosing (PET); format: in vivo; set-up: from tissue; host or cells: kidneys, salivary and lacrimal glands, and tumour lesions/metastases of living human subjects (PET / gamma imaging)
Experimental: One patient was PET imaged 1 h after injection of ^68Ga-PSMA-617 and quantified per SUVmax for tracer uptake in tumor, kidneys and salivary glands. On a subsequent day, the same patient was imaged using the same protocol but with pretreatment of 10 mg (0.1 mg/kgBW) Tris-POC-2-PMPA solution (in 2.5 mL of 30% ethanol) 15 min before application of the PET-tracer.

PSMA [10] = molecular target: T1, PSMA; test: Displacement study of 68Ga-PSMA-617 in LNCaP tumor xenograft bearing nude mice (PET); format: in vivo; set-up: from tissue; host or cells: kidney of nude mice bearing LNCaP xenografts (PET)
Experimental: as §1

[11] = 10 mg, i.v., 15 minutes prior to tracer, PET 1 h p.i., same patient

T1 sequence (O35409 whole entry): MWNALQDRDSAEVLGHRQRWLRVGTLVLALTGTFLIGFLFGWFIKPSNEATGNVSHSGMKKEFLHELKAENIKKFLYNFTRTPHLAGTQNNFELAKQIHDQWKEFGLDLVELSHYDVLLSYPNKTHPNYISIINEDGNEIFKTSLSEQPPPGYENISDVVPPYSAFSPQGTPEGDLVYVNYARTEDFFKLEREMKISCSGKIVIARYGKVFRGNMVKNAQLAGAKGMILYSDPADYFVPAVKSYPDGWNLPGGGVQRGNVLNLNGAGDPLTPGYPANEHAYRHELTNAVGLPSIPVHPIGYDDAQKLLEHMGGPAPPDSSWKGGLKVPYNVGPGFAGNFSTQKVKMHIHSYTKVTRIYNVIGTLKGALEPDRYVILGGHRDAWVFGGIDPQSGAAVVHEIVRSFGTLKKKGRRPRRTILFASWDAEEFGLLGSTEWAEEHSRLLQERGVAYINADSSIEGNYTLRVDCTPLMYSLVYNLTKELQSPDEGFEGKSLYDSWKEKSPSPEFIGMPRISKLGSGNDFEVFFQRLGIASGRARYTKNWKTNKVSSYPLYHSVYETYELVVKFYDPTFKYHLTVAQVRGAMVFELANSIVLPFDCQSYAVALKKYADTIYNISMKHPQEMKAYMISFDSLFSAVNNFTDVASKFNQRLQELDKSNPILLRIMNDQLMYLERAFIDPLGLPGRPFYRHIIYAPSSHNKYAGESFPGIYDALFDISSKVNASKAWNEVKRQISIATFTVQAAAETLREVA
T2 sequence (Q04609 whole entry): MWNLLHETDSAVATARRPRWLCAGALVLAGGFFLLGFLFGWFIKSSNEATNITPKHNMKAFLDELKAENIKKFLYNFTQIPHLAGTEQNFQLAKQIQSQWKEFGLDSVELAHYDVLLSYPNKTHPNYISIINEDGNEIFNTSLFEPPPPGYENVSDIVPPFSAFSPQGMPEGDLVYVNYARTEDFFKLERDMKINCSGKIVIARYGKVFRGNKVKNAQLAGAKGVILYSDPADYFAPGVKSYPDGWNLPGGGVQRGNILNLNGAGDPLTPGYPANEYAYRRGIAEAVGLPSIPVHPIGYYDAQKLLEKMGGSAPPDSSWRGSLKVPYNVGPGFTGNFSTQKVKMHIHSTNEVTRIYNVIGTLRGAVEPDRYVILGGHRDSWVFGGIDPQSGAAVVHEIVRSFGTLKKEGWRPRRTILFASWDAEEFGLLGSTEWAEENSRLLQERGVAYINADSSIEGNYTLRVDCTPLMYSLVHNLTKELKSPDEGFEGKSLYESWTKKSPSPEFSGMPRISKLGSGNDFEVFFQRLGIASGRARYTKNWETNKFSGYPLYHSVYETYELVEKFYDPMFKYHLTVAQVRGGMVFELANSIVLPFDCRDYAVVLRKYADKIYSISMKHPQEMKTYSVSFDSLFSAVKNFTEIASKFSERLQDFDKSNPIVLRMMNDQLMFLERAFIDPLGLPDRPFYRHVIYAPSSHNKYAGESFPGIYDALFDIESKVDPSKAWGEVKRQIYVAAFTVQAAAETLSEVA
T3 sequence (O35409 whole entry): as the sequence (O35409 whole entry) above

Compound: O=C(O)CCC(CP(=O)(O)O)C(=O)O (stereo not shown) [Compound 2-PMPA, 2-(phosphonomethyl)pentanedioic acid]
- nephrotoxicity 3 months later (PSMA [1]): attenuated nephrotoxicity
- reduction of absorbed dose to the kidneys (PSMA [1]): 83%
- inhibition of tumor uptake of the radiotherapeutic (PSMA [2]): more than 50%
- salivary gland penetration ([3]; 2-PMPA administered as parent): little to no
- oral availability ([3]; in vivo, po): negligible
- 2-PMPA kidney exposure, fold lower than achieved with TRIS-POC-2-PMPA delivery [4]: 4 fold
- 2-PMPA salivary gland exposure, fold lower than achieved with TRIS-POC-2-PMPA delivery [4]: 10 fold

- 177Lu-PSMA-617 absorbed dose, kidneys (PSMA [5]; patient 1, 10 mg, i.v.): 0.38 Gy/GBq
- 177Lu-PSMA-617 absorbed dose, parotid gland (PSMA [5]; patient 1, 10 mg, i.v.): 0.24 Gy/GBq
- 177Lu-PSMA-617 absorbed dose, submandibular gland (PSMA [5]; patient 1, 10 mg, i.v.): 0.5 Gy/GBq
- 177Lu-PSMA-617 mean dose to metastases (PSMA [5]; patient 1, 10 mg, i.v.): 8.03 Gy/GBq
- 177Lu-PSMA-617 absorbed dose, kidneys (PSMA [5]; patient 2, 10 mg, i.v.): 0.43 Gy/GBq
- 177Lu-PSMA-617 absorbed dose, parotid gland (PSMA [5]; patient 2, 10 mg, i.v.): 0.46 Gy/GBq
- 177Lu-PSMA-617 absorbed dose, submandibular gland (PSMA [5]; patient 2, 10 mg, i.v.): 0.44 Gy/GBq
- 177Lu-PSMA-617 mean dose to metastases (PSMA [5]; patient 2, 10 mg, i.v.): 13.15 Gy/GBq
- effect on liver exposure to 177Lu-PSMA-617 (PSMA [5]; pre-treatment): modestly reduce
- effect on spleen dose of 177Lu-PSMA-617 (PSMA [5]; pre-treatment): no clear effect
- dose reduction to the lacrimal glands relative to mean control values (PSMA [5]; pre-treatment before 177Lu-PSMA-617): about 82%
- effect on the 177Lu-PSMA-617 dose to metastases (PSMA [5]; pre-treatment, versus historical controls): little or no effect
- dose reduction, salivary glands, relative to historical controls (PSMA [5]; two patients, prior to infusion of 177Lu-PSMA-617): 72%
- mean absorbed dose reduction, kidneys, relative to historical controls (PSMA [5]; two patients, 10 mg, i.v.): 45%
- mean absorbed dose reduction, parotid gland, relative to historical controls (PSMA [5]; two patients, 10 mg, i.v.): 76%
- mean absorbed dose reduction, submandibular gland, relative to historical controls (PSMA [5]; two patients, 10 mg, i.v.): 67%
- mean absorbed dose reduction, kidneys, relative to historical controls (PSMA [5]; two patients, 10 mg, i.v., listed as TRIS-POC-2-PMPA): 48%
- concentrations of 2-PMPA in the kidney compared to an equimolar dose of 2-PMPA [7]: significantly increased
- decrease of maximum 68Ga-PSMA-617 uptake in kidney parenchyma versus representative control (PSMA [8]; 5 mg (0.05 mg/kgBW) 15 min before tracer, healthy volunteer): 65%
- maximum 68Ga-PSMA-617 uptake in parotid glands (PSMA [8]; 5 mg (0.05 mg/kgBW) 15 min before tracer, control without pre-dosing 41.2): 13.5 SUVmax
- maximum 68Ga-PSMA-617 uptake in kidney parenchyma (PSMA [8]; 5 mg (0.05 mg/kgBW) 15 min before tracer, control without pre-dosing 47.5): 16.5 SUVmax
- displacement of 68Ga-PSMA-617 binding to kidney and salivary glands (PSMA [8]; pre-administration, healthy human male): approximately 65%
- residual kidney uptake relative to baseline (renal PSMA): < 10 % of baseline-uptake
- residual kidney uptake of 68Ga-PSMA-617 in displacement-scan (renal PSMA; baseline-scan 3.4 mSUV): 0.3 mSUV
- mean change of 68Ga-PSMA-617 uptake in metastases (PSMA [9]; 10 mg, i.v., 15 minutes prior to tracer): 3%
- 68Ga-PSMA-617 uptake in kidneys after pre-treatment (PSMA [9]; [11]): 8.5 SUVmax
- 68Ga-PSMA-617 uptake in metastases after pre-treatment (PSMA [9]; [11]): 3.9-8.8 SUVmax
- 68Ga-PSMA-617 uptake in parotid gland after pre-treatment (PSMA [9]; [11]): 10.6 SUVmax
- 68Ga-PSMA-617 uptake in submandibular gland after pre-treatment (PSMA [9]; [11]): 14.6 SUVmax
- effect on tumor uptake of the tracer (PSMA [9]; intraindividual comparison, prostate cancer patient): completely spared tumor uptake
- kidney uptake of 68Ga-PSMA-617 in displacement-scan (PSMA [10]; 0.5 or 0.05 mg/kgBW after baseline scan, baseline mSUV 2.36, saline control mSUV 0.47): 0.24 mSUV
- kidney uptake lower than achieved with forced diuresis (saline control) (PSMA [10]; displacement-scan, 2 h after tracer): 50%
Compound: CC(C)OC(=O)OCOC(=O)C(CCC(=O)O)CP(=O)(OCOC(=O)OC(C)C)OCOC(=O)OC(C)C (stereo not shown) [Tris-POC-2-PMPA]
- tumor uptake of 68Ga-PSMA-617 in displacement-scan (PSMA [6]): 1.00 mSUV
